Molecules are shown by their SMILES.

For the test, the target named is T1, Human autotaxin enzyme (Homo sapiens, UniProt Q13822).
T1 construct: purchased R&D System
The test is described as follows: Evaluation of autotaxin inhibitor, 18:0 Lyso PC / choline assay (Test Example 2). The format is biochemical. The conditions noted are these: human autotaxin enzyme, 18:0 Lyso PC substrate, choline assay, room temperature 2 hours; read-out: Inhibitor activity (IC50). In short, it runs like this: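 Inhibition derived from concentration-dependent curves, scaled between no-compound (0%) and no-enzyme (100%) wells. Choline generated from 18:0 Lyso PC (200 μM stock) by human enzyme over 2 h at room temperature (Tris-HCl pH 7.5, NaCl, MgCl2, Triton X-100) read as resorufin fluorescence, 531/598 nm, after choline oxidase-peroxidase coupling.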
By IC50 is commonly meant the concentration that inhibits the measured activity by half. With `CN(CC(N)=O)C(=O)c1cccc(Cn2c(CCCC(F)(F)F)nc(-c3ccc(Cl)cc3)cc2=O)c1` [Compound I-0191], the IC50 fell in the range of 100 to 1000 nM.

In the case of `O=C(NCc1ccnc(O)c1)c1cccc(Cn2c(CCCC(F)(F)F)nc(-c3ccc(Cl)cc3)cc2=O)c1` [Compound I-0192], the IC50 lay in the range of 10 to 100 nM.

Take `O=C(NCc1cccnc1O)c1cccc(Cn2c(CCCC(F)(F)F)nc(-c3ccc(Cl)cc3)cc2=O)c1` [Compound I-0193]: the IC50 lay within 100 to 1000 nM.

For the molecule `O=C(NCC1(CO)COC1)c1cccc(Cn2c(CCCC(F)(F)F)nc(-c3ccc(Cl)cc3)cc2=O)c1` [Compound I-0194], the IC50 was 100 to 1000 nM.

Regarding `O=C(c1cccc(Cn2c(CCCC(F)(F)F)nc(-c3ccc(Cl)cc3)cc2=O)c1)N1CCC2(COC2)C1` [Compound I-0195], the IC50 was < 10 nM.

For `O=C1CCC(CNC(=O)c2cccc(Cn3c(CCCC(F)(F)F)nc(-c4ccc(Cl)cc4)cc3=O)c2)CN1` (stereo not drawn) [Compound I-0196], the IC50 was in the range of 10 to 100 nM.

As for `O=C(c1cccc(Cn2c(CCCC(F)(F)F)nc(-c3ccc(Cl)cc3)cc2=O)c1)N(CCO)CCO` [Compound I-0197], the half-maximal inhibitory concentration (IC50) lay within 100 to 1000 nM.

Regarding `O=C(c1cccc(Cn2c(CCCC(F)(F)F)nc(-c3ccc(Cl)cc3)cc2=O)c1)N(CCO)Cc1ccccc1` [Compound I-0198], the IC50 is 100 to 1000 nM.

Regarding `C[C@@H]1COC[C@H](C)N1C(=O)c1cccc(Cn2c(CCCC(F)(F)F)nc(-c3ccc(Cl)cc3)cc2=O)c1` [Compound I-0199], the IC50 is 10 to 100 nM.

Regarding `CCCNc1nc(-c2ccc(Cl)cc2NC(C)=O)cc(=O)n1Cc1ccccc1` [Compound I-0202], the IC50 is 100 to 1000 nM.

For the molecule `CCCOCc1nc(-c2ccc(Cl)cc2)cc(=O)n1CC(=O)NC1(C#N)CC1` [Compound I-0203], the IC50 lay in the range of 100 to 1000 nM.

For the molecule `CCCOCc1nc(-c2ccc(Cl)cc2)cc(=O)n1CC(=O)NC1(CO)CC1` [Compound I-0204], the IC50 fell in the range of 100 to 1000 nM.

Take `CCCCCc1nc(-c2ccc(Cl)cc2NC(C)=O)cc(=O)n1CC(=O)NC1(C#N)CC1` [Compound I-0205]: the IC50 was in the range of 10 to 100 nM.

On to `CC(C)(C)OC(=O)Cn1c(CCCC(F)(F)F)nc(-c2ccc(Cl)cc2)cc1=O` [Compound I-0206], for which the half-maximal inhibitory concentration (IC50) was < 10 nM.

As for `N#CC1(NC(=O)Cn2c(CCC(F)(F)F)nc(-c3ccc(Cl)cc3)cc2=O)CC1` [Compound I-0207], the IC50 was ≥ 1000 nM.

On to `CCCCCc1nc(OC2CCC(C#N)CC2)cc(=O)n1CC(=O)NC1(C#N)CC1` (stereo not drawn) [Compound I-0208], for which the IC50 was ≥ 1000 nM.

For the molecule `N#CC1(NC(=O)Cn2c(COCC3CC3)nc(-c3ccc(Cl)cc3)cc2=O)CC1` [Compound I-0209], the IC50 fell in the range of 10 to 100 nM.

`N#CC1(NC(=O)Cn2c(COCC(F)(F)F)nc(-c3ccc(Cl)cc3)cc2=O)CC1` [Compound I-0210]: the IC50 is 10 to 100 nM.

As for `O=C(Cn1c(COCC(F)(F)F)nc(-c2ccc(Cl)cc2)cc1=O)NCC1(CO)CC1` [Compound I-0211], the IC50 was 10 to 100 nM.

For the molecule `O=C(Cn1c(COCC2CC2)nc(-c2ccc(Cl)cc2)cc1=O)NCC1(CO)CC1` [Compound I-0212], the IC50 lay within 100 to 1000 nM.

As for `CCCOCc1nc(-c2ccc(Cl)cc2)cc(=O)n1CC(=O)NCC(C)(C)O` [Compound I-0213], the IC50 was in the range of 100 to 1000 nM.

Consider `CC(C)(O)CNC(=O)Cn1c(COCC2CC2)nc(-c2ccc(Cl)cc2)cc1=O` [Compound I-0214], for which the 50% inhibitory concentration (IC50) lay within 100 to 1000 nM.

For `CC(C)(O)CNC(=O)Cn1c(COCC(F)(F)F)nc(-c2ccc(Cl)cc2)cc1=O` [Compound I-0215], the half-maximal inhibitory concentration (IC50) was 10 to 100 nM.

Turning to `CC(C)(C)OC(=O)Cn1c(CCC(F)(F)F)nc(-c2ccc(Cl)cc2)cc1=O` [Compound I-0216], the IC50 lay in the range of 100 to 1000 nM.

`N#CC1(NC(=O)Cn2c(CCCC(F)(F)F)nc(N3CCC(C(F)(F)F)CC3)cc2=O)CC1` [Compound I-0217]: the IC50 fell in the range of 10 to 100 nM.

With `N#CC1(NC(=O)Cn2c(CCCC(F)(F)F)nc(-c3ccc(Cl)cc3)c(F)c2=O)CC1` [Compound I-0218], the IC50 lay in the range of 100 to 1000 nM.

As for `N#CC1(NC(=O)Cn2c(CCCC(F)(F)F)nc(N3CCC(Cc4ccccc4)C3)cc2=O)CC1` (stereo not drawn) [Compound I-0219], the IC50 was 100 to 1000 nM.

As for `N#CCc1cc(OC(F)(F)F)ccc1-c1cc(=O)n(CC(=O)NC2(C#N)CC2)c(CCCC(F)(F)F)n1` [Compound I-0220], the IC50 lay within 10 to 100 nM.

For the molecule `CCOCCc1nc(-c2ccc(Cl)cc2)cc(=O)n1CC(=O)NC1(C#N)CC1` [Compound I-0221], the IC50 lay in the range of 10 to 100 nM.

For `CCOCCc1nc(-c2ccc(Cl)cc2)cc(=O)n1CC(=O)NCC(C)(C)O` [Compound I-0222], the IC50 fell in the range of 100 to 1000 nM.

As for `CCOCCc1nc(-c2ccc(Cl)cc2)cc(=O)n1CC(=O)NCC1(CO)CC1` [Compound I-0223], the IC50 lay in the range of 100 to 1000 nM.

Consider `CNc1cc(Cl)ccc1-c1cc(=O)n(CC(=O)NC2(C#N)CC2)c(CCCC(F)(F)F)n1` [Compound I-0224], for which the IC50 fell in the range of 100 to 1000 nM.

As for `N#CC1(NC(=O)Cn2c(CCCC(F)(F)F)nc(-c3ccc(C(F)(F)F)cc3)cc2=O)CC1` [Compound I-0225], the IC50 was < 10 nM.

Regarding `N#CC1(NC(=O)Cn2c(CCCC(F)(F)F)nc(-c3ccc(Cl)cc3O)cc2=O)CC1` [Compound I-0226], the IC50 lay in the range of 100 to 1000 nM.

`N#Cc1ccc(-c2cc(=O)n(CC(=O)NC3(C#N)CC3)c(CCCC(F)(F)F)n2)cc1` [Compound I-0227]: the IC50 was < 10 nM.

With `N#CC1(NC(=O)Cn2c(CCCC(F)(F)F)nc(-c3ccc(Cl)cc3F)cc2=O)CC1` [Compound I-0228], the IC50 was < 10 nM.

Take `COCCCc1nc(-c2ccc(Cl)cc2)cc(=O)n1CC(=O)NC1(C#N)CC1` [Compound I-0229]: the IC50 was in the range of 100 to 1000 nM.

Regarding `COCCCc1nc(-c2ccc(Cl)cc2)cc(=O)n1CC(=O)NCC(C)(C)O` [Compound I-0230], the IC50 fell in the range of 100 to 1000 nM.

Turning to `COCCCc1nc(-c2ccc(Cl)cc2)cc(=O)n1CC(=O)NCC1(CO)CC1` [Compound I-0231], the IC50 lay in the range of 100 to 1000 nM.

Consider `N#CC1(NC(=O)Cn2c(CCCC(F)(F)F)nc(C3=CCC(C(F)(F)F)CC3)cc2=O)CC1` (stereo not drawn) [Compound I-0232], for which the IC50 is < 10 nM.

Take `N#CC1(NC(=O)Cn2c(CCCC(F)(F)F)nc(-c3ccc(C(F)(F)F)nc3)cc2=O)CC1` [Compound I-0233]: the IC50 lay in the range of 10 to 100 nM.

For `N#CC1(NC(=O)Cn2c(CCCC(F)(F)F)nc(-c3c(F)cc(Cl)cc3F)cc2=O)CC1` [Compound I-0234], the IC50 was in the range of 10 to 100 nM.

Regarding `N#Cc1ccc(-c2cc(=O)n(CC(=O)NC3(C#N)CC3)c(CCCC(F)(F)F)n2)c(F)c1` [Compound I-0235], the IC50 was < 10 nM.

Take `CC1(C)CN(c2cc(=O)n(CC(=O)NC3(C#N)CC3)c(CCCC(F)(F)F)n2)C1` [Compound I-0236]: the IC50 was ≥ 1000 nM.

With `N#CC1(NC(=O)Cn2c(CCCC(F)(F)F)nc(N3CCC(F)(F)CC3)cc2=O)CC1` [Compound I-0237], the IC50 was in the range of 100 to 1000 nM.

For the molecule `COC1CCN(c2cc(=O)n(CC(=O)NC3(C#N)CC3)c(CCCC(F)(F)F)n2)CC1` [Compound I-0238], the IC50 lay in the range of 100 to 1000 nM.

For the molecule `CC(C)(C)N1CCN(c2cc(=O)n(CC(=O)NC3(C#N)CC3)c(CCCC(F)(F)F)n2)CC1` [Compound I-0239], the IC50 is ≥ 1000 nM.

Consider `CC(C)CC1CCN(c2cc(=O)n(CC(=O)NC3(C#N)CC3)c(CCCC(F)(F)F)n2)C1` (stereo not drawn) [Compound I-0240], for which the IC50 was in the range of 100 to 1000 nM.

The values above are taken from patent publication US10183949B2, “Pyrimidinone derivative having autotaxin-inhibitory activity” (The University of Tokyo, priority 2014, dated 2019).
